# Results: patent US7776292B2 (priority 2004, dated 2010)
# Several values for one entry are separate records, joined by “and”; a condition that tells them apart may be missing. Equal values may be shown once.
# Key:
# Format in all cases: cell-based
# [1] = tested on: TP 10 (conventional bioindicator spores)
# weaponized spores [2] = tested on: weaponized spores
# weaponized spores [3] = tested on: weaponized spores; remark: listed apart in the source
# weaponized spores [4] = tested on: weaponized spores; remark: listed apart in the source
# weaponized spores [5] = tested on: weaponized spores; remark: listed apart in the source
# [6] = tested on: conventional biological indicator spores
# [7] = tested on: conventional biological indicator spores; remark: listed apart in the source
# weaponized spores [8] = tested on: weaponized spores; remark: listed apart in the source
# [9] = tested on: conventional biological indicator spores; remark: listed apart in the source
# weaponized spores [10] = tested on: weaponized spores; remark: listed apart in the source
smiles,measurement,setting,value
[O][Cl+][O-] [chlorine dioxide],viable spores after Cycle 1,[1],4.3 × 10^5
same,viable spores after Cycle 2,[1],1.3 × 10^3
same,viable spores after Cycle 3,[1],7.2 × 10^2
same,"viability in culture, Humidification Time 1 hour",weaponized spores [2],Positive
same,"viability in culture, Humidification Time 2 hours",weaponized spores [2],Positive
same,"viability in culture, Humidification Time 3 hours",weaponized spores [2],Positive
same,"filters with viable spores/filters, ClO2 Concentration 500 ppm",weaponized spores [3],3/4 and 2/2; and 2/2
same,"filters with viable spores/filters, ClO2 Concentration 1000 ppm",weaponized spores [3],0/2
same,"filters with viable spores/filters, ClO2 Concentration 2500 ppm",weaponized spores [3],0/2
same,"viable spore count, ClO2 Concentration 500 ppm",weaponized spores [3],1.43 × 10^3
same,"filters with viable spores/filters, Humidification time 1 hour",weaponized spores [4],0/2
same,"filters with viable spores/filters, Humidification time 2 hours",weaponized spores [4],0/2
same,"filters with viable spores/filters, Humidification time 3 hours",weaponized spores [4],0/2
same,viable spores after Cycle 1,weaponized spores [5],5.7 × 10^4
same,viable spores after Cycle 2,weaponized spores [5],0
same,viable spores after Cycle 3,weaponized spores [5],3.3 × 10^1
same,"filters with viable spores/filters, ClO2 Concentration 500 ppm",[6],0/2
same,"filters with viable spores/filters, ClO2 Concentration 1000 ppm",[6],0/2
same,"filters with viable spores/filters, ClO2 Concentration 2500 ppm",[6],0/2
same,"filters with viable spores/filters, Humidification time 1 hour",[7],0/2
same,"filters with viable spores/filters, Humidification time 2 hours",[7],0/2
same,"filters with viable spores/filters, Humidification time 3 hours",[7],0/2
same,filters showing viable spores following decontamination (out of 16),weaponized spores [8],none
same,"viability in culture, Humidification Time 1 hour",[9],Negative
same,"viability in culture, Humidification Time 2 hours",[9],Negative
same,"viability in culture, Humidification Time 3 hours",[9],Negative
same,10^−4 (Dilution on agar),weaponized spores [10],TNTC
